Drawing on patent US10562898B2, “Substituted benzenesulfonamides as inhibitors of alpha-4 beta-7 integrin activity” (EA PHARMA CO., LTD., priority 2016, dated 2020), this text covers IC50 for eight compounds.

The target of this assay is T1, T cell α4β7 integrin (Homo sapiens, UniProt P13612+P26010).
T1 construct: Blood samples were obtained from healthy volunteers' blood donation; endogenous in cells; host or cells: CD4-positive T cells in whole blood of healthy human volunteers
T1 sequence (P13612 34-1032): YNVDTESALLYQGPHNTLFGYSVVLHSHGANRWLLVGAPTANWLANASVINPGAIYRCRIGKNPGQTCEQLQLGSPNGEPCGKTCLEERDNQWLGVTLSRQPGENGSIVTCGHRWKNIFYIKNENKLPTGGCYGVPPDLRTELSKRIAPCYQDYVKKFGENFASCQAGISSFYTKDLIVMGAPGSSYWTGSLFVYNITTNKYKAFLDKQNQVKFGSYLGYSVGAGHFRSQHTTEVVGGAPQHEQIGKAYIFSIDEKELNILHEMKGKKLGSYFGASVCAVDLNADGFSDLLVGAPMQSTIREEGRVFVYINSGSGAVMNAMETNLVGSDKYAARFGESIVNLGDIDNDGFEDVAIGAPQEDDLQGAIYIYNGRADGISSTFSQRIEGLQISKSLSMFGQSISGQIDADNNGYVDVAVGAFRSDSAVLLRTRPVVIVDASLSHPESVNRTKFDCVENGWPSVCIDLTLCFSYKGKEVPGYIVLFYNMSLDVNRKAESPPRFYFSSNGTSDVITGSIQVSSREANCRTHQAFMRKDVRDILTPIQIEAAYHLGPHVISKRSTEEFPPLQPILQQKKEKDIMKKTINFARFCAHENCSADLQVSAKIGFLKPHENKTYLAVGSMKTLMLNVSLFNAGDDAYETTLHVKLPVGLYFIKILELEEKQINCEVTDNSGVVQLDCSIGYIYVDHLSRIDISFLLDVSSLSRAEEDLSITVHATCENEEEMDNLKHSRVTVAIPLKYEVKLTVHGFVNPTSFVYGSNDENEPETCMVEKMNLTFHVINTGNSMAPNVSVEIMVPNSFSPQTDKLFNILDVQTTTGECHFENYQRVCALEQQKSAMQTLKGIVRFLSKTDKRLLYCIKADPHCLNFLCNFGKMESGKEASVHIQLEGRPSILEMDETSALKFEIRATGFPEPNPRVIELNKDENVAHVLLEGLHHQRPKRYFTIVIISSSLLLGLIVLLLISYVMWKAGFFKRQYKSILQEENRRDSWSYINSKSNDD
T1 sequence (P26010 20-798): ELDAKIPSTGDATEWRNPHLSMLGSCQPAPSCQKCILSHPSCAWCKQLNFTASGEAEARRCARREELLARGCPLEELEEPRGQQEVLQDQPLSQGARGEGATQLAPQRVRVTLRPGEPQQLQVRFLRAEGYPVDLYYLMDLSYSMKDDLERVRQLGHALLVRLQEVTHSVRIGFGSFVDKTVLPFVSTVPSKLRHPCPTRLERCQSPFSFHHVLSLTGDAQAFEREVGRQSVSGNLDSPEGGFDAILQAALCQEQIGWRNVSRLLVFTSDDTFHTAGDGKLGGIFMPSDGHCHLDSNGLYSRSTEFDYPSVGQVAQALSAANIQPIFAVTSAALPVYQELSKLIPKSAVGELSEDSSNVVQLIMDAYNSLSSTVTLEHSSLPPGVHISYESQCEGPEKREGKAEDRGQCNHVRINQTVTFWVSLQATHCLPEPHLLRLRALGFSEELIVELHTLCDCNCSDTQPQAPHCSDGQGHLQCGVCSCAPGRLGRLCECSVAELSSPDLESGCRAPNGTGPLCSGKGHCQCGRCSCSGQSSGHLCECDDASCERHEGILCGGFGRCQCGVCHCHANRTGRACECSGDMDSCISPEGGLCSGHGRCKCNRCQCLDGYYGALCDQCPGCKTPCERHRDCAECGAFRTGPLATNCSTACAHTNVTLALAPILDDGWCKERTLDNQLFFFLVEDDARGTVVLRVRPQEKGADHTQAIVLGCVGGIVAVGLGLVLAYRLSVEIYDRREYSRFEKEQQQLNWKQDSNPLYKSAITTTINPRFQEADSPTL
Description: Human MAdCAM-1/α4β7 integrin binding inhibitory activity evaluation test in whole human blood. It counts as cell-based. The conditions noted are these: recombinant human MAdCAM-1/Fc, CD4 positive cells, flow cytometry. As for the experimental part: Human MAdCAM-1/α4β7 Integrin Binding Inhibitory Activity Evaluation Test in Whole Human Blood
Each test substance was measured in terms of the inhibitory activity of binding of T cell α4β7 integrin and MAdCAM-1 in human whole blood. Blood samples were obtained from healthy volunteers' blood donation.
A 4 mM MnCl2 solution and each of dilutions of various test substances were added to human whole blood, followed by incubation for 10 minutes. Recombinant human MAdCAM-1/Fc (R&D Systems) at 10 μg/mL was added, and each test sample taken in a total amount of 50 μL was incubated for 30 minutes. Then, 950 μL of Lyse/Fix (BD Biosciences) was added to allow hemolysis and fixation to proceed at 37° C. for 10 minutes. After centrifugation for 5 minutes, the supernatant was removed and 600 μL of a RPMI-1640 medium supplemented with 10% inactivated fetal bovine serum (hereinafter referred to as the medium) was added, followed by centrifugation for 5 minutes, removal of the supernatant, and then washing. The test sample was washed again with the medium, and then 2.5 μg/mL Mouse Anti-MAdCAM-1 antibody (Invitrogen) was added, followed by incubation for 30 minutes or more. After the test sample was washed with the medium, 3.4 μg/mL Goat Anti-Mouse IgG H&L, FITC (Abcam) was added, followed by incubation for 30 minutes or more. After the test sample was washed with the medium, 0.15 μg/mL PE Rat Anti-Mouse CD4 (BD Pharmigen) was added, followed by incubation for 30 minutes or more. After the test sample was washed with the medium, a ratio of MAdCAM-1 positive cells to CD4 positive cells was measured by using flow cytometry.
From independent test results using different blood samples of two to three persons, a MAdCAM-1 binding inhibiting rate of each test substance at each of various concentrations was obtained under the setting in which, among wells containing no test substances, a well containing no ligand was scored at 100% inhibition and a well containing ligand was scored at 0% inhibition, and then a concentration IC50 which brought about 50% binding inhibition was calculated.
A general note: In flow cytometry, cells or beads pass a laser one at a time.
As a reminder, the IC50 is the midpoint of a concentration-inhibition curve. Consider `CN1CCC(=O)N(c2ccc(C[C@H](NC(=O)c3cc(F)c(NS(=O)(=O)c4ccc(NC(=O)C(C)(C)C)cc4)cc3F)C(=O)O)cn2)C1=O` [Compound A75, (2S)-2-[2,5-difluoro-4-[(4-pivalamidophenyl)sulfonamide]benzamido]-3-[6-(3-methyl-2,6-dioxotetrahydropyrimidin-1(2H)-yl)pyridin-3-yl]propanoic acid], for which the IC50 is 5.6 nM.
As for `Cn1cc(C(F)(F)F)c(=O)n(-c2ccc(C[C@H](NC(=O)c3cc(F)c(NS(=O)(=O)c4ccc(NC(=O)C(C)(C)C)cc4)cc3F)C(=O)O)cn2)c1=O` [Compound A67], the figure is 5.7 nM; as for `Cn1ccc(=O)n(-c2ccc(C[C@H](NC(=O)c3cc(F)c(NS(=O)(=O)c4ccc(NC(=O)C(C)(C)C)cc4)cc3F)C(=O)O)cn2)c1=O` [Compound A53], 2.9 nM; as for `Cc1cn(C)c(=O)n(-c2ccc(C[C@H](NC(=O)c3cc(F)c(NS(=O)(=O)c4ccc(NC(=O)C(C)(C)C(F)(F)F)cc4)cc3F)C(=O)O)cn2)c1=O` [Compound A58], 5.1 nM.
As for `Cc1cn(C)c(=O)n(-c2ccc(C[C@H](NC(=O)c3cc(F)c(NS(=O)(=O)c4ccc(NC(=O)C(C)(C)CO)cc4)cc3F)C(=O)O)cn2)c1=O` [Compound A63], the figure is 4.8 nM.
Consider `Cc1cn(C)c(=O)n(-c2ccc(C[C@H](NC(=O)c3cc(F)c(NS(=O)(=O)c4ccc(NC(=O)C(C)(C)C)cc4)cc3F)C(=O)O)cn2)c1=O` [Compound A54], for which the 50% inhibitory concentration (IC50) was 2 nM.
As for `Cc1cn(C)c(=O)n(-c2ccc(C[C@H](NC(=O)c3cc(F)c(NS(=O)(=O)c4ccc(NC(=O)C5(C(F)(F)F)CC5)cc4)cc3F)C(=O)O)cn2)c1=O` [Compound A56], the figure is 5.4 nM; as for `Cc1cc(=O)n(-c2ccc(C[C@H](NC(=O)c3cc(F)c(NS(=O)(=O)c4ccc(NC(=O)C(C)(C)C)cc4)cc3F)C(=O)O)cn2)c(=O)n1C` [Compound A45], 1.5 nM.
